Assay results from US4656166A, “Antibiotic compounds derived from cephalosporins, process for their production and pharmaceutical compositions” (Sanofi, priority 1983, dated 1987).
In brackets after ≈: the same amount, converted by molar mass. Where two headings read alike, the source gives them in different places.

Assays:
Assay type in all cases: cell-based
[1] = system: Escherichia coli SOL 90; assay: MIC, in vitro dilution method, Escherichia coli SOL 90 (Table III); settings: SOL90; Escherichia coli SOL 90; dilution method; read-out: MIC
How it was run: (§1)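 Compounds are serially diluted in vitro and tested for bacteriostatic effect on each Gram-negative strain; the lowest inhibiting concentration is recorded as MIC (μg/ml).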

[2] = system: Citrobacter RL 49; assay: MIC, in vitro dilution method, Citrobacter RL 49 (Table III); settings: RL49
How it was run: as §1

[3] = system: Proteus vulgaris RL 99 bis; assay: MIC, in vitro dilution method, Proteus vulgaris RL 99 bis (Table III); settings: RL99BIS
How it was run: as §1

[4] = system: Serrtia liquefaciens SL 1326 S; assay: MIC on strain not producing beta-lactamase, Serratia liquefaciens SL 1326 S (Table IV); settings: SL1326S, not producing beta-lactamases
Procedure: (§2) To evaluate the stability of these products towards beta-lactamases, their MIC was determined on isogenic strains producing and not producing beta-lactamases.
(§3) The results are expressed in μg/ml in Table IV.

[5] = system: Serratia RL 72; assay: MIC, in vitro dilution method, Serratia RL 72 (Table III); settings: RL72
How it was run: as §1

[6] = system: Proteus vulgaris GN 76/C.1; assay: MIC on beta-lactamase producing strain Proteus vulgaris GN 76/C.1 (Table IV); settings: GN76
Procedure: as §2, §3

[7] = system: Klebsiella RO 30; assay: MIC, in vitro dilution method, Klebsiella RO 30 (Table III); settings: RO30; Klebsiella RO 30; dilution method; read-out: MIC
How it was run: as §1

[8] = system: Pseudomonas RL 112; assay: MIC, in vitro dilution method, Pseudomonas RL 112 (Table III); settings: RL112
How it was run: as §1

[9] = system: Enterobacter RO 154; assay: MIC, in vitro dilution method, Enterobacter RO 154 (Table III); settings: RO154; Enterobacter RO 154; dilution method; read-out: MIC
How it was run: as §1

[10] = system: Serrtia liquefaciens SL/326 A; assay: MIC on beta-lactamase producing strain Serratia liquefaciens SL/326 A (Table IV)
Procedure: as §2, §3

[11] = system: Escherichia coli 255; assay: MIC on beta-lactamase producing strain Escherichia coli 255 (Table IV); settings: Escherichia coli 255, producing beta-lactamases; read-out: MIC
Procedure: as §2, §3

[12] = system: Escherichia coli 255/L.7; assay: MIC on strain not producing beta-lactamase, Escherichia coli 255/L.7 (Table IV); settings: Escherichia coli 255/L.7 *, not producing beta-lactamases; read-out: MIC
Procedure: as §2, §3

[13] = system: Proteus vulgaris GN 76/C.1/3; assay: MIC on strain not producing beta-lactamase, Proteus vulgaris GN 76/C.1/3 (Table IV); settings: GN76, not producing beta-lactamases
Procedure: as §2, §3

[14] = Citrobacter RL 49, dilution method, read-out: MIC
[15] = Proteus vulgaris RL 99 bis, dilution method, read-out: MIC
[16] = Proteus vulgaris GN 76/C.1, producing beta-lactamases, read-out: MIC

| SMILES | MIC [1] [µg/mL] | MIC [2, 14] [µg/mL] | MIC [3, 15] [µg/mL] | MIC [4] [µg/mL] | MIC [5] [µg/mL] | MIC [6, 16] [µg/mL] | MIC [7] [µg/mL] | MIC [8] [µg/mL] | MIC [9] [µg/mL] | MIC [10] [µg/mL] | MIC [11] [µg/mL] | MIC [12] [µg/mL] | MIC [13] [µg/mL] | MIC ([3]; Proteus vulgaris) [µg/mL] | MIC ([6]; Proteus vulgaris) [µg/mL] | MIC ([2]; Citrobacter) [µg/mL] |
| --- | --- | --- | --- | --- | --- | --- | --- | --- | --- | --- | --- | --- | --- | --- | --- | --- |
| CC(C)(ON=C(C(=O)NC1C(=O)N2C(C(=O)O)=C(CSC(=O)C3CCCNC3)C[S+]([O-])C12)c1csc(N)n1)C(=O)O (stereo not shown) [compound 42074] | 1 (≈ 1.59 µM) | 0.5 (≈ 0.795 µM) | 0.5 (≈ 0.795 µM) | 0.12 (≈ 0.191 µM) | 4 (≈ 6.36 µM) | 0.5 (≈ 0.795 µM) | 0.5 (≈ 0.795 µM) | 8 (≈ 12.7 µM) | 8 (≈ 12.7 µM) | 0.25 (≈ 0.398 µM) | 0.5 (≈ 0.795 µM) | 0.25 (≈ 0.398 µM) | – | – | – | – |
| CC(C)(ON=C(C(=O)NC1C(=O)N2C(C(=O)O)=C(COC(=O)C3CCCNC3)C[S+]([O-])C12)c1csc(N)n1)C(=O)O (stereo not shown) [42 022] | 0.5 (≈ 0.816 µM) | 0.25 (≈ 0.408 µM) | ≤ 0.12 | ≤ 0.12 | 0.5 (≈ 0.816 µM) | ≤ 0.12 | 0.25 (≈ 0.408 µM) | 4 (≈ 6.53 µM) | 2 (≈ 3.26 µM) | ≤ 0.12 | 0.25 (≈ 0.408 µM) | 0.25 (≈ 0.408 µM) | ≤ 0.12 | – | – | – |
| CNCc1ccc(C(=O)SCC2=C(C(=O)O)N3C(=O)C(NC(=O)C(=NOC(C)(C)C(=O)O)c4csc(N)n4)C3[S+]([O-])C2)cc1 (stereo not shown) [compound 42533] | 0.5 (≈ 0.752 µM) | 0.25 (≈ 0.376 µM) | – | ≤ 0.0312 | 1 (≈ 1.5 µM) | – | 0.25 (≈ 0.376 µM) | 8 (≈ 12 µM) | 0.5 (≈ 0.752 µM) | 0.125 (≈ 0.188 µM) | 0.125 (≈ 0.188 µM) | 0.0625 (≈ 0.094 µM) | 0.125 (≈ 0.188 µM) | ≤ 0.125 | 0.0625 (≈ 0.094 µM) | – |
| CC(C)(ON=C(C(=O)NC1C(=O)N2C(C(=O)O)=C(COC(=O)C3CCN(C(=O)CN)CC3)C[S+]([O-])C12)c1csc(N)n1)C(=O)O (stereo not shown) [42 549] | 0.25 (≈ 0.373 µM) | – | – | ≤ 0.0312 | 0.5 (≈ 0.747 µM) | – | 0.25 (≈ 0.373 µM) | 4 (≈ 5.97 µM) | 0.25 (≈ 0.373 µM) | 0.125 (≈ 0.187 µM) | 0.125 (≈ 0.187 µM) | 0.0625 (≈ 0.0933 µM) | 0.0625 (≈ 0.0933 µM) | ≤ 0.125 | ≤ 0.0312 | ≤ 0.125 |
| CC(C)(O/N=C(\C(=O)NC1C(=O)N2C(C(=O)O)=C(COC(=O)c3ccc(NC(=O)CN)cc3)C[S+]([O-])C12)c1csc(N)n1)C(=O)O (stereo not shown) [42 467] | 0.25 (≈ 0.369 µM) | – | – | 0.125 (≈ 0.184 µM) | 2 (≈ 2.95 µM) | – | 0.25 (≈ 0.369 µM) | 4 (≈ 5.9 µM) | 0.5 (≈ 0.738 µM) | 0.125 (≈ 0.184 µM) | 0.0625 (≈ 0.0922 µM) | ≤ 0.0312 | 0.0625 (≈ 0.0922 µM) | ≤ 0.125 | ≤ 0.0312 | ≤ 0.125 |
| CC(N)CCC(=O)OCC1=C(C(=O)O)N2C(=O)C(NC(=O)C(=NOC(C)(C)C(=O)O)c3csc(N)n3)C2[S+]([O-])C1 (stereo not shown) [42 027] | 0.25 (≈ 0.416 µM) | 0.25 (≈ 0.416 µM) | ≤ 0.12 | ≤ 0.06 | 0.5 (≈ 0.832 µM) | 0.12 (≈ 0.2 µM) | 0.25 (≈ 0.416 µM) | 4 (≈ 6.66 µM) | 2 (≈ 3.33 µM) | 0.25 (≈ 0.416 µM) | 0.12 (≈ 0.2 µM) | 0.06 (≈ 0.0999 µM) | – | – | – | – |
| CNCCCC(=O)OCC1=C(C(=O)O)N2C(=O)C(NC(=O)/C(=N\OC(C)(C)C(=O)O)c3csc(N)n3)C2[S+]([O-])C1 (stereo not shown) [42 028] | 0.25 (≈ 0.416 µM) | 0.5 (≈ 0.832 µM) | ≤ 0.12 | ≤ 0.06 | 0.5 (≈ 0.832 µM) | 0.25 (≈ 0.416 µM) | 0.25 (≈ 0.416 µM) | 4 (≈ 6.66 µM) | 2 (≈ 3.33 µM) | 0.12 (≈ 0.2 µM) | 0.12 (≈ 0.2 µM) | 0.12 (≈ 0.2 µM) | – | – | – | – |
| Cc1c(CN)cccc1C(=O)SCC1=C(C(=O)O)N2C(=O)C(NC(=O)C(=NOC(C)(C)C(=O)O)c3csc(N)n3)C2[S+]([O-])C1 (stereo not shown) [compound 42535] | 0.5 (≈ 0.752 µM) | 0.25 (≈ 0.376 µM) | – | 0.125 (≈ 0.188 µM) | 1 (≈ 1.5 µM) | – | 0.25 (≈ 0.376 µM) | 8 (≈ 12 µM) | 0.5 (≈ 0.752 µM) | 0.0625 (≈ 0.094 µM) | 0.125 (≈ 0.188 µM) | ≤ 0.0312 | 0.125 (≈ 0.188 µM) | ≤ 0.125 | 0.0625 (≈ 0.094 µM) | – |
| CC(C)(ON=C(C(=O)NC1C(=O)N2C(C(=O)O)=C(CSC(=O)c3ccc(NC(=O)CN)cc3)C[S+]([O-])C12)c1csc(N)n1)C(=O)O (stereo not shown) [compound 42664] | 1 (≈ 1.44 µM) | – | – | 0.0625 (≈ 0.0901 µM) | 4 (≈ 5.77 µM) | 0.125 (≈ 0.18 µM) | 0.5 (≈ 0.721 µM) | 8 (≈ 11.5 µM) | 4 (≈ 5.77 µM) | 0.25 (≈ 0.36 µM) | 0.25 (≈ 0.36 µM) | 0.0625 (≈ 0.0901 µM) | 0.25 (≈ 0.36 µM) | – | – | – |
